{"source": "patent US20230011869A1", "about": "(Hoffmann-La Roche Inc., priority 2018, published 2023)", "note": "Structures can show the parent of a compound that is named as a salt."}
{"system": "Acinetobacter baumannii ATCC17978", "assay": "Antimicrobial susceptibility testing: 90% growth inhibitory concentration (IC90) determination, Iso-Sensitest broth", "assay_type": "cell-based", "details": "90% growth inhibitory concentration, Acinetobacter baumannii ATCC17978, Iso-Sensitest broth, OD 600 nm over 16 h; read-out: ATCC17978 IC90", "experimental": "(§1) Antimicrobial Susceptibility Testing:\n(§2) 90% Growth Inhibitory Concentration (IC90) Determination\n(§3) The in vitro antimicrobial activity of the compounds was determined according to the following procedure:\n(§4) The assay used a 10-points Iso-Sensitest broth medium to measure quantitatively the in vitro activity of the compounds against Acinetobacter baumannii ATCC17978 and Acinetobacter baumannii ATCC17961.\n(§5) Microtiter plates were incubated at 35±2° C.\n(§6) Bacterial cell growth was determined with the measurement of optical density at λ=600 nm each 20 minutes over a time course of 16 h. Growth inhibition was calculated during the logarithmic growth of the bacterial cells with determination of the concentration inhibiting 50% (IC50) and 90% (IC90) of the growth.", "units": {"IC90": "nM"}}
{"smiles": "COc1ccc(-c2cnc3c(Nc4ccc(C(=O)N5CCC(C(=O)N(C)C[C@H](O)[C@@H](O)[C@H](O)[C@H](O)CO)CC5)c(C)c4)nccn23)cc1F", "note": "[Example 432, 1-[4-[[3-(3-fluoro-4-methoxyphenyl)imidazo[1,2-a]pyrazin-8-yl]amino]-2-methylbenzoyl]-N-methyl-N-[(2S,3R,4R,5R)-2,3,4,5,6-pentahydroxyhexyl]piperidine-4-carboxamide]", "IC90": 1500}
{"smiles": "COc1ccc(-c2cnc3c(Nc4ccc(C(=O)N5CCN(C(=O)NC[C@H](C)N)CC5)c(C)c4)nccn23)c(Cl)c1F", "note": "[Example 156, N-[(2S)-2-aminopropyl]-4-[4-[[3-(2-chloro-3-fluoro-4-methoxy-phenyl)imidazo[1,2-a]pyrazin-8-yl]amino]-2-methyl-benzoyl]piperazine-1-carboxamide formate]", "IC90": 180}
{"smiles": "COc1ccc(-c2cnc3c(Nc4ccc(C(=O)N5CCC(C(=O)NCc6ccc(C(=O)O)cc6)CC5)c(C)c4)nccn23)cc1F", "note": "[Example 427, 4-[[[1-[4-[[3-(3-fluoro-4-methoxyphenyl)imidazo[1,2-a]pyrazin-8-yl]amino]-2-methylbenzoyl]piperidine-4-carbonyl]amino]methyl]ben-zoic acid]", "IC90": 1200}
{"smiles": "Cc1cc(Nc2nccn3c(-c4ccc(OC(C)C#N)c(F)c4F)cnc23)ccc1C(=O)N1CCC(CN)CC1", "note": "(stereo not shown) [Example 119, 2-[4-[8-[4-[4-(aminomethyl)piperidine-1-carbonyl]-3-methyl-anilino]imidazo[1,2-a]pyrazin-3-yl]-2,3-difluoro-phenoxy]propanenitrile;2,2,2-trifluoroacetic acid]", "IC90": 400}
{"smiles": "Cc1cc(Nc2nccn3c(-c4ccc(OC(C)C#N)c(F)c4F)cnc23)ccc1C(=O)N1CCN(CCN(C)C)CC1", "note": "(stereo not shown) [Example 238, 2-[4-[8-[4-[4-[2-(dimethylamino)ethyl]piperazine-1-carbonyl]-3-methyl-anilino]imidazo[1,2-a]pyrazin-3-yl]-2,3-difluoro-phenoxy]propanenitrile; 2,2,2-trifluoroacetic acid]", "IC90": 210}
{"smiles": "COc1ccc(-c2cnc3c(Nc4ccc(C(=O)N5CCN(C(=O)C6C7CCC6CNC7)CC5)c(C)c4)nccn23)c(F)c1F", "note": "(stereo not shown) [Example 205, [4-(3-azabicyclo[3.2.1]octane-8-carbonyl)piperazin-1-yl]-[4-[[3-(2,3-difluoro-4-methoxy-phenyl)imidazo[1,2-a]pyrazin-8-yl]amino]-2-methyl-phenyl]methanone hydrochloride]", "IC90": 110}
{"smiles": "Cc1cc(Nc2nccn3c(-c4ccc(OC(F)F)cc4)cnc23)ccc1C(=O)N1CCC(n2cncn2)CC1", "note": "[Example 8, (4-(1H-1,2,4-triazol-1-yl)piperidin-1-yl)(4-((3-(4-(difluoromethoxy)phenyl)imidazo[1,2-a]pyrazin-8-yl)amino)-2-methylphenyl)methanone]", "IC90": 130}
{"smiles": "Cc1cc(Nc2nccn3c(-c4ccc(OCC#N)c(F)c4F)cnc23)ccc1C(=O)N1CCN(C(=O)C2CNC2)CC1", "note": "[Example 504, 2-[4-[8-[4-[4-(azetidine-3-carbonyl)piperazine-1-carbonyl]-3-methylanilino]imidazo[1,2-a]pyrazin-3-yl]-2,3-difluorophenoxy]acetonitrile; formic acid]", "IC90": 490}
{"smiles": "Cc1cc(Nc2nccn3c(-c4ccc(OCC#N)c(F)c4F)cnc23)ccc1C(=O)N1CCN(C(=O)N2CCNCC2)CC1", "note": "[Example 137, 2-[2,3-difluoro-4-[8-[3-methyl-4-[4-(piperazine-1-carbonyl)piperazine-1-carbonyl]anilino]imidazo[1,2-a]pyrazin-3-yl]phenoxy]acetonitrile formate]", "IC90": 130}
{"smiles": "COc1ccc(-c2cnc3c(Nc4ccc(C(=O)N5CCN(C(=O)N6CCO[C@H](CN)C6)CC5)c(C)c4)nccn23)c(F)c1F", "note": "[Example 140, [4-[(2R)-2-(aminomethyl)morpholine-4-carbonyl]piperazin-1-yl]-[4-[[3-(2,3-difluoro-4-methoxy-phenyl)imidazo[1,2-a]pyrazin-8-yl]amino]-2-methyl-phenyl]methanone formate]", "IC90": 190}
{"smiles": "Cc1cc(Nc2nccn3c(-c4ccc(OCC5CC5C#N)c(F)c4F)cnc23)ccc1C(=O)N1CCC(CN)CC1", "note": "(stereo not shown) [Example 114, 2-[[4-[8-[4-[4-(aminomethyl)piperidine-1-carbonyl]-3-methyl-anilino]imidazo[1,2-a]pyrazin-3-yl]-2,3-difluoro-phenoxy]methyl]cyclopropanecarbonitrile formate]", "IC90": 410}
{"smiles": "CSc1ccc(-c2cnc3c(Nc4ccc(C(=O)N5CCC(CN)CC5)c(C)c4)nccn23)cc1F", "note": "[Example 116, [4-(aminomethyl)-1-piperidyl]-[4-[[3-(3-fluoro-4-methylsulfanyl-phenyl)imidazo[1,2-a]pyrazin-8-yl]amino]-2-methyl-phenyl]methanone formate]", "IC90": 500}
{"smiles": "COc1ccc(-c2cnc3c(Nc4ccc(C(=O)N5CCC(C(=O)N6CCOC(CN)C6)CC5)c(C)c4)nccn23)cc1F", "note": "(stereo not shown) [Example 39, (4-(2-(aminomethyl)morpholine-4-carbonyl)piperidin-1-yl)(4-((3-(3-fluoro-4-methoxyphenyl)imidazo[1,2-a]pyrazin-8-yl)amino)-2-methylphenyl)methanone hydrochloride]", "IC90": 260}
{"system": "Acinetobacter baumannii ATCC17978", "assay": "Antimicrobial susceptibility testing: 90% growth inhibitory concentration (IC90) determination, Iso-Sensitest broth", "assay_type": "cell-based", "details": "Acinetobacter baumannii, ATCC17978, 16 h, read-out: ATCC17978 IC90, 90% growth inhibitory concentration, Acinetobacter baumannii ATCC17978, Iso-Sensitest broth, OD 600 nm over 16 h", "experimental": "as §1, §2, §3, §4, §5, §6", "units": {"IC90": "nM"}}
{"smiles": "COc1ccc(-c2cnc3c(Nc4ccc(C(=O)N5CCC(C(=O)N(C)CCCN)CC5)c(C)c4)nccn23)cc1F", "note": "[Example 406, N-(3-aminopropyl)-1-[4-[[3-(3-fluoro-4-methoxyphenyl)imidazo[1,2-a]pyrazin-8-yl]amino]-2-methylbenzoyl]-N-methylpiperidine-4-carboxamide; hydrochloride]", "IC90": 530}
{"smiles": "CCc1cc(Nc2nccn3c(-c4ccc(OC)c(F)c4)cnc23)ccc1C(=O)N1CCC(C(=O)NCCNC)CC1", "note": "[Example 330, 1-[2-ethyl-4-[[3-(3-fluoro-4-methoxyphenyl)imidazo[1,2-a]pyrazin-8-yl]amino]benzoyl]-N-[2-(methylamino)ethyl]piperidine-4-carboxamide; hydrochloride]", "IC90": 400}
{"smiles": "COc1ccc(-c2cnc3c(Nc4ccc(C(=O)N5CCN(C(=O)[C@@H]6CCNC6)CC5)c(C)c4)nccn23)cc1F", "note": "[Example 483, [4-[[3-(3-fluoro-4-methoxyphenyl)imidazo[1,2-a]pyrazin-8-yl]amino]-2-methylphenyl]-[4-[(3R)-pyrrolidine-3-carbonyl]piperazin-1-yl]methanone; hydrochloride]", "IC90": 180}
{"smiles": "COc1ccc(-c2cnc3c(Nc4ccc(C(=O)N5CCC(C(=O)NCC6CNC6)CC5)c(C)c4)nccn23)cc1F", "note": "[Example 328, N-(azetidin-3-ylmethyl)-1-[4-[[3-(3-fluoro-4-methoxyphenyl)imidazo[1,2-a]pyrazin-8-yl]amino]-2-methylbenzoyl]piperidine-4-carboxamide; hydrochloride]", "IC90": 390}
{"smiles": "CNCCN(C)C(=O)C1CCN(C(=O)c2ccc(Nc3nccn4c(-c5ccc(OC)c(F)c5)cnc34)cc2C)CC1", "note": "[Example 391, 1-[4-[[3-(3-fluoro-4-methoxyphenyl)imidazo[1,2-a]pyrazin-8-yl]amino]-2-methylbenzoyl]-N-methyl-N-[2-(methylamino)ethyl]piperidine-4-carboxamide; hydrochloride]", "IC90": 340}
{"smiles": "Cc1cc(Nc2nccn3c(-c4ccc(OC(F)F)cc4)cnc23)ccc1C(=O)N1CCN(C(=O)[C@@H](N)CCC(N)=O)CC1", "note": "[Example 525, (4S)-4-amino-5-[4-[4-[[3-[4-(difluoromethoxy)phenyl]imi-dazo[1,2-a]pyrazin-8-yl]amino]-2-methylbenzoyl]piperazin-1-yl]-5-oxopentanamide; hydrochlo-ride]", "IC90": 510}
{"smiles": "COc1ccc(-c2cnc3c(Nc4ccc(C(=O)N5CCN(C(=O)[C@@H]6C[C@@H](OC(=O)CN)CN6)CC5)c(C)c4)nccn23)c(F)c1F", "note": "[Example 562, [(3R,5S)-5-[4-[4-[[3-(2,3-difluoro-4-methoxy-phenyl)imidazo[1,2-a]pyrazin-8-yl]amino]-2-methyl-benzoyl]piperazine-1-carbonyl]pyrrolidin-3-yl]2-aminoacetate formate]", "IC90": 112}
{"smiles": "CCc1cc(Nc2nccn3c(-c4ccc(OC)c(F)c4F)cnc23)ccc1C(=O)N1CCN(C(=O)C2CCNCC2)CC1", "note": "[Example 494, [4-[[3-(2,3-difluoro-4-methoxyphenyl)imidazo[1,2-a]pyrazin-8-yl]amino]-2-ethylphenyl]-[4-(piperidine-4-carbonyl)piperazin-1-yl]methanone; hydrochloride]", "IC90": 320}
{"smiles": "COc1ccc(-c2cnc3c(Nc4ccc(C(=O)N5CCN(C(=O)[C@H]6CCNC6)CC5)c(C)c4)nccn23)c(F)c1F", "note": "[Example 460, [4-[[3-(2,3-difluoro-4-methoxyphenyl)imidazo[1,2-a]pyrazin-8-yl]amino]-2-methylphenyl]-[4-[(3S)-pyrrolidine-3-carbonyl]piperazin-1-yl]methanone; hydrochloride]", "IC90": 83}
{"smiles": "CCNC(=O)CN1CCN(C(=O)c2ccc(Nc3nccn4c(-c5ccc(OC(F)F)cc5)cnc34)cc2C)CC1", "note": "[Example 352, 2-[4-[4-[[3-[4-(difluoromethoxy)phenyl]imi-dazo[1,2-a]pyrazin-8-yl]amino]-2-methylbenzoyl]piperazin-1-yl]-N-ethylacetamide]", "IC90": 220}
{"smiles": "COc1ccc(-c2cnc3c(Nc4ccc(C(=O)N5CCC(C(=O)NCC6CNC6)CC5)c(C)c4)nccn23)c(F)c1F", "note": "[Example 75, hydrochloride]", "IC90": 160}
{"smiles": "CNCCNC(=O)[C@@H]1CCN(C(=O)c2ccc(Nc3nccn4c(-c5ccc(OC)c(F)c5)cnc34)cc2C)C[C@@H]1O", "note": "(racemic) [Example 439, rac-(3R,4R)-1-[4-[[3-(3-fluoro-4-methoxyphenyl)imidazo[1,2-a]pyrazin-8-yl]amino]-2-methylbenzoyl]-3-hydroxy-N-[2-(methyl-amino)ethyl]piperidine-4-carboxamide; 2,2,2-trifluoroacetic acid]", "IC90": 910}
